For 33 compounds, Ki results are on record in patent US8653263B2 (Janssen Pharmaceutica, priority 2009, dated 2014).

This assay deals with human orexin-2 receptor (Homo sapiens (Human), UniProt O43614). The assay can be described thus: Human orexin 2 receptor radioligand binding ([3H]-EMPA competition). To be noted: HEK293 cells stably expressing human orexin-2 receptor; [3H]-EMPA 5 nM final; apparent Ki=IC50/(1+C/Kd), Kd=2 nM; read-out: OR 2 Ki.
Sequence of human orexin-2 receptor (O43614 whole entry): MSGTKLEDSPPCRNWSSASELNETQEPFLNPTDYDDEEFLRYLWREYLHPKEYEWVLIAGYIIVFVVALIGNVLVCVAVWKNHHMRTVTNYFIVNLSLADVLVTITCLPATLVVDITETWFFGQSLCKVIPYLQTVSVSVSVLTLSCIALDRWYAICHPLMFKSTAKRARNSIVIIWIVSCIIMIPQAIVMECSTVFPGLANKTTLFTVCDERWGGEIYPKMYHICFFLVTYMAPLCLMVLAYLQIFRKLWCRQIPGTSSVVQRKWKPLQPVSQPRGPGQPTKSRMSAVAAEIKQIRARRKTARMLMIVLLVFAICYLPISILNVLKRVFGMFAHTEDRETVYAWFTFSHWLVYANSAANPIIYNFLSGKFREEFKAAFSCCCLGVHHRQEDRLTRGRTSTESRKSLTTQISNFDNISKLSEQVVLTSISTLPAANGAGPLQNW
Take `Cc1cc(N2CC3CN(C(=O)c4nc(C)sc4-c4ccc(F)cc4)CC3C2)nc(C)n1` (stereo not drawn) [Example 253, 2-(2,6-Dimethylpyrimidin-4-yl)-5-{[5-(4-fluorophenyl)-2-methyl-1,3-thiazol-4-yl]carbonyl}octahydropyrrolo[3,4-c]pyrrole]: the Ki came to 5000 nM.
For `Cc1cc(C)nc(N2CC3CN(C(=O)c4nc(C)sc4-c4ccc(F)cc4)CC3C2)n1` (stereo not drawn) [Example 254, 2-(4,6-Dimethylpyrimidin-2-yl)-5-{[5-(4-fluorophenyl)-2-methyl-1,3-thiazol-4-yl]carbonyl}octahydropyrrolo[3,4-c]pyrrole] the value was 2200 nM; for `Cc1nc(=O)cc(N2CC3CN(C(=O)c4nc(C)sc4-c4ccc(F)cc4)CC3C2)[nH]1` (stereo not drawn) [Example 255, 6-[5-{[5-(4-Fluorophenyl)-2-methyl-1,3-thiazol-4-yl]carbonyl}hexahydropyrrolo[3,4-c]pyrrol-2(1H)-yl]-2-methylpyrimidin-4(3H)-one], 10000 nM.
To `O=C(O)c1cnc(N2CC3CN(C(=O)c4c(F)cccc4-n4nccn4)CC3C2)nc1C(F)(F)F` (stereo not drawn) [Example 263, 2-(5-(2-Fluoro-6-(2H-1,2,3-triazol-2-yl)benzoyl)hexahydropyrrolo[3,4-c]pyrrol-2(1H)-yl)-4-(trifluoromethyl)pyrimidine-5-carboxylic acid] belongs 10000 nM; to `Cc1cc(C(=O)O)nc(N2CC3CN(C(=O)c4c(F)cccc4-n4nccn4)CC3C2)n1` (stereo not drawn) [Example 265, 2-(5-(2-Fluoro-6-(2H-1,2,3-triazol-2-yl)benzoyl)hexahydropyrrolo[3,4-c]pyrrol-2(1H)-yl)-6-methylpyrimidine-4-carboxylic acid], 9000 nM; to `Cc1cc(C)nc(N2CC3CN(C(=O)c4cccc(C)c4-n4ccnn4)CC3C2)n1` (stereo not drawn) [Example 267, (5-(4,6-Dimethylpyrimidin-2-yl)hexahydropyrrolo[3,4-c]pyrrol-2(1H)-yl)(3-methyl-2-(1H-1,2,3-triazol-1-yl)phenyl)methanone], 10000 nM.
For `Cc1cc(C)c(C(=O)N2CC3CN(c4nc(C)cc(C)n4)CC3C2)c(C)c1` (stereo not drawn) [Example 270, (5-(4,6-Dimethylpyrimidin-2-yl)hexahydropyrrolo[3,4-c]pyrrol-2(1H)-yl)(mesityl)methanone] the value was 1030 nM.
As to `Cc1cc(C)nc(N2CC3CN(C(=O)c4cccc(F)c4F)CC3C2)n1` (stereo not drawn) [Example 271, (2,3-Difluorophenyl)(5-(4,6-dimethylpyrimidin-2-yl)hexahydropyrrolo[3,4-c]pyrrol-2(1H)-yl)methanone], the Ki was 5000 nM.
For `COc1ccc(C(=O)N2CC3CN(c4nc(C)cc(C)n4)CC3C2)c(-c2ncccn2)c1` (stereo not drawn) [Example 272, (5-(4,6-Dimethylpyrimidin-2-yl)hexahydropyrrolo[3,4-c]pyrrol-2(1H)-yl)(4-methoxy-2-(pyrimidin-2-yl)phenyl)methanone] the value was 33 nM; for `COc1cccc(C(=O)N2CC3CN(c4nc(C)cc(C)n4)CC3C2)c1OC` (stereo not drawn) [Example 273, (2,3-Dimethoxyphenyl)(5-(4,6-dimethylpyrimidin-2-yl)hexahydropyrrolo[3,4-c]pyrrol-2(1H)-yl)methanone], 5000 nM.
Consider `Cc1cc(C)nc(N2CC3CN(C(=O)c4ccccc4OC(F)(F)F)CC3C2)n1` (stereo not drawn) [Example 274, (5-(4,6-Dimethylpyrimidin-2-yl)hexahydropyrrolo[3,4-c]pyrrol-2(1H)-yl)(2-(trifluoromethoxy)phenyl)methanone], for which the Ki amounted to 61 nM.
For `COc1cc(C)ccc1C(=O)N1CC2CN(c3nc(C)cc(C)n3)CC2C1` (stereo not drawn) [Example 276, (5-(4,6-Dimethylpyrimidin-2-yl)hexahydropyrrolo[3,4-c]pyrrol-2(1H)-yl)(2-methoxy-4-methylphenyl)methanone] the value was 2950 nM; for `COc1ccc(C(=O)N2CC3CN(c4nc(C)cc(C)n4)CC3C2)c(C)c1` (stereo not drawn) [Example 277, (5-(4,6-Dimethylpyrimidin-2-yl)hexahydropyrrolo[3,4-c]pyrrol-2(1H)-yl)(4-methoxy-2-methylphenyl)methanone], 680 nM; for `Cc1cc(C)nc(N2CC3CN(C(=O)c4c(F)cccc4F)CC3C2)n1` (stereo not drawn) [Example 278, (2,6-Difluorophenyl)(5-(4,6-dimethylpyrimidin-2-yl)hexahydropyrrolo[3,4-c]pyrrol-2(1H)-yl)methanone], 2270 nM.
Regarding `Cc1cc(C)nc(N2CC3CN(C(=O)c4cccc(F)c4-c4ncccn4)CC3C2)n1` (stereo not drawn) [Example 283, 2-(4,6-Dimethylpyrimidin-2-yl)-5-[(3-fluoro-2-pyrimidin-2-ylphenyl)carbonyl]octahydropyrrolo[3,4-c]pyrrole], the Ki was 10 nM.
For `Cc1cc(C)nc(N2CC3CN(C(=O)c4cccc(F)c4-c4ccn[nH]4)CC3C2)n1` (stereo not drawn) [Example 284, 2-(4,6-Dimethylpyrimidin-2-yl)-5-{[3-fluoro-2-(1H-pyrazol-5-yl)phenyl]carbonyl}octahydropyrrolo[3,4-c]pyrrole] the value was 8 nM.
To `COc1cccc(C(=O)N2CC3CN(c4nc(C)cc(C)n4)CC3C2)c1-n1ccnn1` (stereo not drawn) [Example 286, 2-(4,6-Dimethylpyrimidin-2-yl)-5-{[3-methoxy-2-(1H-1,2,3-triazol-1-yl)phenyl]carbonyl}octahydropyrrolo[3,4-c]pyrrole] belongs 10000 nM; to `Cc1cc(C)nc(N2CC3CN(C(=O)c4cccc(F)c4-n4ccnn4)CC3C2)n1` (stereo not drawn) [Example 287, 2-(4,6-Dimethylpyrimidin-2-yl)-5-{[3-fluoro-2-(1H-1,2,3-triazol-1-yl)phenyl]carbonyl}octahydropyrrolo[3,4-c]pyrrole], 1400 nM; to `COc1ccc(C(=O)N2CC3CN(c4nc(C)cc(C)n4)CC3C2)c(-n2ccnn2)c1` (stereo not drawn) [Example 289], 1800 nM.
For `Cc1nc(N2CC3CN(C(=O)c4ccccc4-n4nccn4)CC3C2)ncc1F` (stereo not drawn) [Example 290, 2-(5-Fluoro-4-methylpyrimidin-2-yl)-5-{[2-(2H-1,2,3-triazol-2-yl)phenyl]carbonyl}octahydropyrrolo[3,4-c]pyrrole] the value was 19 nM.
`O=C(c1ccccc1-n1nccn1)N1CC2CN(c3nc(Cl)ncc3F)CC2C1` (stereo not drawn) [Example 291, 2-(2-Chloro-5-fluoropyrimidin-4-yl)-5-{[2-(2H-1,2,3-triazol-2-yl)phenyl]carbonyl}octahydropyrrolo[3,4-c]pyrrole]: the Ki is 266 nM.
To `Cc1cc(C(C)C)nc(N2CC3CN(C(=O)c4cc(C(C)C)ccc4-n4nccn4)CC3C2)n1` (stereo not drawn) [Example 300, 2-{[5-(1-Methylethyl)-2-(2H-1,2,3-triazol-2-yl)phenyl]carbonyl}-5-[4-methyl-6-(1-methylethyl)pyrimidin-2-yl]octahydropyrrolo[3,4-c]pyrrole] belongs 290 nM.
Consider `Cc1ncnc(N2CC3CN(C(=O)c4c(F)cccc4-n4nccn4)CC3C2)n1` (stereo not drawn) [Example 303, 2-{[2-Fluoro-6-(2H-1,2,3-triazol-2-yl)phenyl]carbonyl}-5-(4-methyl-1,3,5-triazin-2-yl)octahydropyrrolo[3,4-c]pyrrole], for which the Ki was 1700 nM.
For the compound `Cc1nc(N2CC3CN(C(=O)c4ccccc4-c4nnc[nH]4)CC3C2)nc(C)c1C` (stereo not drawn) [Example 305, 2-{[2-(4H-1,2,4-Triazol-3-yl)phenyl]carbonyl}-5-(4,5,6-trimethylpyrimidin-2-yl)octahydropyrrolo[3,4-c]pyrrole], the Ki stood at 7 nM.
For `Cc1cc(C)nc(N2CC3CN(C(=O)c4ccccc4-c4nc(C)no4)CC3C2)n1` (stereo not drawn) [Example 306, 2-(4,6-Dimethylpyrimidin-2-yl)-5-{[2-(3-methyl-1,2,4-oxadiazol-5-yl)phenyl]carbonyl}octahydropyrrolo[3,4-c]pyrrole] the value was 39 nM.
To `Cc1cc(C)nc(N2CC3CN(C(=O)c4ccccc4-c4ncn(C)n4)CC3C2)n1` (stereo not drawn) [Example 308, 2-(4,6-Dimethylpyrimidin-2-yl)-5-{[2-(1-methyl-1H-1,2,4-triazol-3-yl)phenyl]carbonyl}octahydropyrrolo[3,4-c]pyrrole] belongs 26 nM.
For `Cc1noc(-c2ccccc2C(=O)N2CC3CN(c4nc(C)c(C)c(C)n4)CC3C2)n1` (stereo not drawn) [Example 309, 2-{[2-(3-Methyl-1,2,4-oxadiazol-5-yl)phenyl]carbonyl}-5-(4,5,6-trimethylpyrimidin-2-yl)octahydropyrrolo[3,4-c]pyrrole] the value was 7 nM; for `Cc1noc(-c2ccccc2C(=O)N2CC3CN(c4ncc(F)c(C)n4)CC3C2)n1` (stereo not drawn) [Example 310, 2-(5-Fluoro-4-methylpyrimidin-2-yl)-5-{[2-(3-methyl-1,2,4-oxadiazol-5-yl)phenyl]carbonyl}octahydropyrrolo[3,4-c]pyrrole], 64 nM.
Take `Cc1nc(N2CC3CN(C(=O)c4ccccc4-c4ncn(C)n4)CC3C2)nc(C)c1C` (stereo not drawn) [Example 311, 2-{[2-(1-Methyl-1H-1,2,4-triazol-3-yl)phenyl]carbonyl}-5-(4,5,6-trimethylpyrimidin-2-yl)octahydropyrrolo[3,4-c]pyrrole]: the Ki is 7 nM.
For `Cc1nc(N2CC3CN(C(=O)c4ccccc4-c4ncn(C)n4)CC3C2)ncc1F` (stereo not drawn) [Example 312, 2-(5-Fluoro-4-methylpyrimidin-2-yl)-5-{[2-(1-methyl-1H-1,2,4-triazol-3-yl)phenyl]carbonyl}octahydropyrrolo[3,4-c]pyrrole] the value was 79 nM; for `Cc1cc(C)nc(N2CC3CN(C(=O)c4c(F)cccc4-c4nc(C)no4)CC3C2)n1` (stereo not drawn) [Example 315, 2-(4,6-Dimethylpyrimidin-2-yl)-5-{[2-fluoro-6-(3-methyl-1,2,4-oxadiazol-5-yl)phenyl]carbonyl}octahydropyrrolo[3,4-c]pyrrole], 38 nM; for `Cc1noc(-c2ccccc2C(=O)N2CC3CN(c4nc(C)c(Cl)c(C)n4)CC3C2)n1` (stereo not drawn) [Example 318, 2-(5-Chloro-4,6-dimethylpyrimidin-2-yl)-5-{[2-(3-methyl-1,2,4-oxadiazol-5-yl)phenyl]carbonyl}octahydropyrrolo[3,4-c]pyrrole], 5 nM.
With `Cc1noc(-c2ccccc2C(=O)N2CC3CN(c4nc(C)c5c(n4)CCC5)CC3C2)n1` (stereo not drawn) [Example 319, 4-Methyl-2-[5-{[2-(3-methyl-1,2,4-oxadiazol-5-yl)phenyl]carbonyl}hexahydropyrrolo[3,4-c]pyrrol-2(1H)-yl]-6,7-dihydro-5H-cyclopenta[d]pyrimidine], the Ki was found to be 18 nM.
